Source: patent US10550150B2, “Short-chain peptides as Kappa (κ) opioid receptors (KOR) agonist” (CADILA HEALTHCARE LIMITED, priority 2015, dated 2020)
Like-named read-outs stand apart in the source and are kept apart here. *1 amine or outer side, *2 acyl side, *3 side chain or, on linkers, in order; H or OH if unused. Where a SMILES comes first, the peptide text is derived from it. [ ]: non-standard residue; d: D form. The star is where a group is joined. X26 = O=C(CN1CC2CC(C1)N2*)OCc1ccccc1; X9 = O=C(CN1CC2CC(C1)N2[*:1])[*:2]; X28 = O=C(O)CCN(CCC(=O)O)*; X4 = O=C(O)CN1CC2CC(C1)N2*; Ac6c = NC1(C(=O)O)CCCCC1; Ac5c = NC1(C(=O)O)CCCC1; X10 = OCCN(CCO)*

Legend:
[1] = molecular target: T1, Kappa (κ) opioid receptors (KOR) (Homo sapiens, UniProt P41145); assay: In vitro KOR agonistic activity, cAMP based functional assay; type: cell-based
T1 construct: host or cells: unnamed cells grown in Ham's F-12 medium
Procedure: a) In Vitro (EC50) Determination, Using cAMP Based Functional Assay:
In vitro, KOR agonistic activity of test compounds were assessed using cAMP based functional assay. A 96-well plate was seeded at the density of 30,000 cells/well in 100 μl/well of complete Ham's F-12 medium. After seeding, the plates were incubated overnight at 37° C., 5% CO2, in CO2 Incubator. Overnight medium was discarded and plate washed with 100 μl/well of sterile PBS. Then 90 μl of 0.1 mM IBMX containing 0.5% Fatty acid free BSA in plain HamsF12 was added to each well. This was allowed to incubate for 30 minutes at 37° C., 5% CO2. Forskolin 20 μM in 0.5% Fatty acid free BSA was added to each well and allowed to incubate at room temperature for 5 minutes. Dilution of test compounds was made at 200× in DMSO and then diluted 1:10 times in BSA containing plain HamsF12. Agonist (test compounds, in 10% DMSO) was added to each well (5 μl) and allowed to incubate for 20 minutes at 37° C., 5% CO2. After 20 minutes, media was aspirated from the wells and the wells were washed with 1×PBS. Cell lysis buffer 4× (Arbor Assays, Cat # X074-60 ML) was diluted 1:4 in MilliQ and 90 μl of this buffer was added per well. Cells were allowed to shake at 500 rpm, room temperature for 20 minutes. Cell lysate was collected in 1.5 ml eppendorf tubes and centrifuged at 13.2 k rpm, 4° C. for 15 minutes. 50 μl of the supernatant of cell lysate was then used for cAMP estimation by cAMP direct ELISA kit (Arbor Assays, Cat # K019-H5).

[2] = test system: acetic acid induced writhing; assay: Acetic acid-induced writhing model (antinociceptive activity); type: in vivo; details: acetic acid induced pain model, ICR mice (n = 6), iv
Procedure: In Vivo (ED50) Determination, Using Acetic Acid-Induced Writhing Model
The acetic acid induced writhing assay can detect antinociceptive activity for opioid drug, acting at peripheral, spinal and supraspinal levels. Animals were fasted 12 to 16 h prior testing. The nociceptive response (abdominal contractions or writhes) was induced by diluted acetic acid (0.6%, 10 ml/kg, for mice and 2.5%, 0.5 ml/rat) administered intraperitoneally (i.p.) at time 0 min.
In mouse experiments, compounds were administered orally, intravenously (i.v.) or subcutaneously (s.c.). To determine the antinociceptive potency and efficacy, full dose-response curves were constructed with test compounds, given 5 min prior to acetic acid administration. The duration of action was determined by using increasing pretreatment time (5, 60, and 120 min.), prior to acetic acid administration, for a sub-maximally effective dose defined during the dose-response curve study. In rat experiments, compounds were administered orally, intravenously (i.v.) or subcutaneously (s.c.), 15 min prior to acetic acid administration. The number of writhes was counted over the 15 min period following acetic acid administration. A writhe is defined as a constriction of the abdominal area, often with extension of the hind legs. Percentage maximum possible effect (MPE) was calculated as: % MPE=100−[(No. of writhes in test compound treated animal/No. of writhes in vehicle treated animal)]×100. ED50 dose was determined using GraphPad Prism.

[3] = cAMP based functional assay, forskolin stimulated, read-out: In-vitro EC50
[4] = refers to Table-4, read-out: in vitro KOR agonistic activity EC50

T1 sequence (P41145 whole entry): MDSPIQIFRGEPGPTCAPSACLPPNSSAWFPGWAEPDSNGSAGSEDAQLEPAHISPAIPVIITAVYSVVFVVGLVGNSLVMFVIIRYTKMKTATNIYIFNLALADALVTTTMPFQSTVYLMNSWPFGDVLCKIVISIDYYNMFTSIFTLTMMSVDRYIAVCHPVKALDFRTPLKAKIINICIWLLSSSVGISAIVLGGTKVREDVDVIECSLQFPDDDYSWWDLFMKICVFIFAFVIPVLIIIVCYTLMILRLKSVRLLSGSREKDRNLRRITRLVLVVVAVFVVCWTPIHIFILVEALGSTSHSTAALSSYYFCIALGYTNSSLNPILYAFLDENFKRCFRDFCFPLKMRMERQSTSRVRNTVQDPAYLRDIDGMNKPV

CC(C)CC(NC(=O)C(Cc1ccccc1)NC(=O)C(N)Cc1ccccc1)C(=O)NC(CCCCN)C(=O)N1C2CCC1CC(O)C2 (centres unmarked) [Compound 105]
EC50 [1, 3]: 0.002 nM

CC(C)CC(NC(=O)C(Cc1ccccc1)NC(=O)C(N)Cc1ccccc1)C(=O)NC(CCCCN)C(=O)N1C2CC1CN(C(=O)CCCCCN)C2 (centres unmarked) [Compound 93]
In-vivo ED50 [2]: 0.11 mpk

CC(C)CC(NC(=O)C(Cc1ccccc1)NC(=O)C(N)Cc1ccccc1)C(=O)NC(CCCCN)C(=O)N1CC2CN(CCO)CC2C1 (centres unmarked) [Compound 18]
In-vivo ED50 [2]: 1 mpk

CC(C)CC(NC(=O)C(Cc1ccccc1)NC(=O)C(N)Cc1ccccc1)C(=O)NC(CCCCN)C(=O)N1CC2CN(CC(N)=O)CC2C1 (stereo not drawn) [Compound 17, H2N-Phe-Phe-Leu-Lys-Hpp-CONH2]
EC50 [1, 3]: 0.38 nM

CC(C)CC(NC(=O)C(Cc1ccccc1)NC(=O)C(N)Cc1ccccc1)C(=O)NC(CCCCN)C(=O)N1C2CC1CN(CC(=O)N(CC(=O)O)CC(=O)O)C2 (centres unmarked) [Compound 99]
EC50 [1, 3]: 0.016 nM

CC(C)CC(NC(=O)C(Cc1ccccc1)NC(=O)C(N)Cc1ccccc1)C(=O)NC(CCCCN)C(=O)N1C2CC1CN(CC(=O)OCc1ccccc1)C2 (centres unmarked) [Compound 49]
EC50 [1, 3]: 0.016 nM

CC(C)CC(NC(=O)C(Cc1ccccc1)NC(=O)C(N)Cc1ccccc1)C(=O)NC(CCCCN)C(=O)N1C2CC1CN(C(=O)CN(CC(=O)O)CC(=O)O)C2 (centres unmarked) [Compound 102]
EC50 [1, 3]: 0.012 nM

CC(C)CC(NC(=O)C(Cc1ccccc1)NC(=O)C(N)Cc1ccccc1)C(=O)NC(CCCCN)C(=O)N1CC2CC(C1)N2 (centres unmarked) [Compound 51]
EC50 [1, 3]: 0.012 nM

CC(C)CC(NC(=O)C(Cc1ccccc1)NC(=O)C(N)Cc1ccccc1)C(=O)NC(CCCCN)C(=O)N1C2CC1CN(CC(=O)N(CCC(=O)O)CCC(=O)O)C2 (centres unmarked) [Compound 100] (H-FFLK[X9]-X28; configuration not given here)
EC50 [1, 3]: 0.015 nM

CC(C)CC(NC(=O)C(Cc1ccccc1)NC(=O)C(C)(N)Cc1ccccc1)C(=O)NC(CCCCN)C(=O)N1CC2CC(C1)N2CC(=O)O (centres unmarked) [Compound 57]
In-vivo ED50 [2]: 0.26 mpk

CC(C)CC(NC(=O)C(Cc1ccccc1)NC(=O)C(N)Cc1ccccc1)C(=O)NC(CCCCN)C(=O)N1C2CC1CN(CCO)C2 (centres unmarked) [Compound 38]
In-vivo ED50 [2]: 0.04 mpk

CC(C)CC(NC(=O)C(Cc1ccccc1)NC(=O)C(N)Cc1ccccc1)C(=O)NC(CCCCN)C(=O)N1C2CC1CN(Cc1ccccc1)C2 (centres unmarked) [Compound 34, N-(6-amino-1-(3-benzyl-3,6-diazabicyclo[3.1.1]heptan-6-yl)-1-oxohexan-2-yl)-2-(2-(2-amino-3-phenylpropanamido)-3-phenylpropanamido)-4-methylpentanamide]
EC50 [1, 3]: 0.088 nM

NCCCCC(NC(=O)C1(NC(=O)C(Cc2ccccc2)NC(=O)C(N)Cc2ccccc2)CCCCC1)C(=O)N1C2CC1CN(CC(=O)O)C2 (centres unmarked) [Compound 41] (H-FF[Ac6c]K-X4; configuration not given here)
EC50 [1, 3]: 0.015 nM

CC(C)CC(NC(=O)C(Cc1ccccc1)NC(=O)C(N)Cc1ccccc1)C(=O)NC(CCCCN)C(=O)N1C2CNCC1C2 (centres unmarked) [Compound 32]
EC50 [1, 3]: 0.02 nM

CC(C)CC(NC(=O)C(Cc1ccccc1)NC(=O)C(N)Cc1ccc(O)cc1)C(=O)NC(CCCCN)C(=O)N1C2CC1CN(CC(=O)O)C2 (centres unmarked) [Compound 90] (H-YFLK-X4; configuration not given here)
In-vivo ED50 [2]: 0.98 mpk

CCOC(=O)C1CC2CN(C(=O)C(CCCCN)NC(=O)C(CC(C)C)NC(=O)C(Cc3ccccc3)NC(=O)C(N)Cc3ccccc3)CC2C1 (centres unmarked) [Compound 27]
EC50 [1, 3]: 0.009 nM

CC(C)CC(NC(=O)C(Cc1ccccc1)NC(=O)C(N)Cc1ccccc1)C(=O)NC(CCCCN)C(=O)N1CC2CC1CN2Cc1ccccc1 (centres unmarked) [Compound 62]
In-vivo ED50 [2]: 0.31 mpk

CC(C)CC(NC(=O)C(Cc1ccccc1)NC(=O)C(N)Cc1ccccc1)C(=O)NC(CCCCN)C(=O)N1C2CC1CN(CC(=O)NC(CCC(=O)O)C(=O)O)C2 (centres unmarked) [Compound 104] (H-FFLK[X9]E-OH; configuration not given here)
In-vivo ED50 [2]: 0.07 mpk

NCCCCC(NC(=O)C1(NC(=O)C(Cc2ccccc2)NC(=O)C(N)Cc2ccccc2)CCCCC1)C(=O)N1C2CC1CN(CC(=O)OCc1ccccc1)C2 (centres unmarked) [Compound 50] (H-FF[Ac6c]K-X26; configuration not given here)
EC50 [1, 3]: 0.008 nM

NCCCCC(NC(=O)C1(NC(=O)C(Cc2ccccc2)NC(=O)C(N)Cc2ccc(O)cc2)CCCCC1)C(=O)N1C2CC1CN(CC(=O)O)C2 (centres unmarked) [Compound 92] (H-YF[Ac6c]K-X4; configuration not given here)
EC50 [1, 3]: 0.018 nM

CC(C)CC(NC(=O)C(Cc1ccccc1)NC(=O)C(N)Cc1ccccc1)C(=O)NC(CCCCN)C(=O)N1CC2CC(CN)CC2C1 (centres unmarked) [Compound 26]
EC50 [1, 3]: 0.22 nM

CC(C)CC(NC(=O)C(Cc1ccccc1)NC(=O)C(N)Cc1ccccc1)C(=O)NC(CCCCN)C(=O)N1C2CC1CN(C(=O)C(N)CO)C2 (centres unmarked) [Compound 97]
In-vivo ED50 [2]: 0.42 mpk

CC(C)CC(NC(=O)C(Cc1ccccc1)NC(=O)C(N)Cc1ccccc1)C(=O)NC(CCCCN)C(=O)N1C2CC1CN(C)C2 (centres unmarked) [Compound 33]
EC50 [1, 3]: 0.009 nM

CC(C)CC(NC(=O)C(Cc1ccccc1)NC(=O)C(N)Cc1ccccc1)C(=O)NC(CCCCN)C(=O)N1CC2CN(CC(=O)O)CC2C1 (centres unmarked) [Compound 16]
EC50 [1, 3]: 0.004 nM
EC50 [1, 4]: < 0.1 nM
In-vivo ED50 [2]: 0.1 mpk

CC(C)CC(NC(=O)C(Cc1ccccc1)NC(=O)C(N)Cc1ccccc1)C(=O)NC(CCCCN)C(=O)N1CC2CNCC2C1 (centres unmarked) [Compound 13]
In-vivo ED50 [2]: 1 mpk

CC(C)CC(NC(=O)C(Cc1ccccc1)NC(=O)C(N)Cc1ccccc1)C(=O)NC(CCCCN)C(=O)N1CC2=C(CN(C(=O)CO)C2)C1 (centres unmarked) [Compound 10]
EC50 [1, 3]: 0.4 nM

CC(C)CC(NC(=O)C(Cc1ccccc1)NC(=O)C(N)Cc1ccccc1)C(=O)NC(CCCCN)C(=O)N1CC2=C(CN(CC(N)=O)C2)C1 (centres unmarked) [Compound 5]
EC50 [1, 3]: 0.009 nM
EC50 [1, 4]: < 0.1 nM
In-vivo ED50 [2]: 0.07 mpk

CC(C)CC(NC(=O)C(Cc1ccccc1)NC(=O)C(N)Cc1ccccc1)C(=O)NC(CCCCN)C(=O)N1CC2=C(CN(CC(=O)O)C2)C1 (centres unmarked) [Compound 4]
EC50 [1, 3]: 0.047 nM
EC50 [1, 4]: < 0.1 nM

CC(C)CC(NC(=O)C(Cc1ccccc1)NC(=O)C(N)Cc1ccccc1)C(=O)NC(CCCCN)C(=O)N1C2CC1CN(CC(N)=O)C2 (centres unmarked) [Compound 37]
EC50 [1, 3]: 0.083 nM
EC50 [1, 4]: < 0.1 nM
In-vivo ED50 [2]: 0.08 mpk

CC(C)CC(NC(=O)C(Cc1ccccc1)NC(=O)C(N)Cc1ccccc1)C(=O)NC(CCCCN)C(=O)N1C2CC1CN(CC(=O)O)C2 (centres unmarked) [Compound 36]
EC50 [1, 3]: 0.015 nM
EC50 [1, 4]: < 0.1 nM
In-vivo ED50 [2]: 0.04 mpk

CC(C)CC(NC(=O)C(Cc1ccccc1)NC(=O)C(N)Cc1ccccc1)C(=O)NC(CCCCN)C(=O)N1C2CC1CN(CC(=O)N(CCO)CCO)C2 (centres unmarked) [Compound 101] (H-FFLK[X9]-X10; configuration not given here)
EC50 [1, 3]: 0.012 nM

CCOC(=O)CN1CC2CN(C(=O)C(CCCCN)NC(=O)C(CC(C)C)NC(=O)C(Cc3ccccc3)NC(=O)C(N)Cc3ccccc3)CC2C1 (centres unmarked) [Compound 15]
EC50 [1, 3]: 0.007 nM
EC50 [1, 4]: < 0.1 nM
In-vivo ED50 [2]: 0.1 mpk

CC(C)CC(NC(=O)C(Cc1ccccc1)NC(=O)C(N)Cc1ccccc1)C(=O)NC(CCCCN)C(=O)N1CC2CC(=O)CC2C1 (centres unmarked) [Compound 23]
EC50 [1, 3]: 0.085 nM

CCOC(=O)CN1CC2CC(C1)N2C(=O)C(CCCCN)NC(=O)C(CC(C)C)NC(=O)C(Cc1ccccc1)NC(=O)C(N)Cc1ccccc1 (centres unmarked) [Compound 35]
EC50 [1, 3]: 0.01 nM
EC50 [1, 4]: < 0.1 nM
In-vivo ED50 [2]: 0.03 mpk

CC(C)CC(NC(=O)C(Cc1ccccc1)NC(=O)C(N)Cc1ccccc1)C(=O)NC(CCCCN)C(=O)N1C2CC1CN(S(C)(=O)=O)C2 (centres unmarked) [Compound 39]
In-vivo ED50 [2]: 0.18 mpk

NCCCCC(NC(=O)C1(NC(=O)C(Cc2ccccc2)NC(=O)C(N)Cc2ccccc2)CCCC1)C(=O)N1C2CC1CN(CC(=O)O)C2 (centres unmarked) [Compound 42] (H-FF[Ac5c]K-X4; configuration not given here)
In-vivo ED50 [2]: 0.23 mpk

CC(C)CC(NC(=O)C(Cc1ccccc1)NC(=O)C(N)Cc1ccccc1)C(=O)NC(CCCCN)C(=O)N1CC2CN(S(C)(=O)=O)CC2C1 (centres unmarked) [Compound 19]
In-vivo ED50 [2]: 0.28 mpk
